Assay results: patent US20240279174A1, “ANTIBIOTICS COMPRISING LPXH-TARGETING COMPOUNDS AND METHODS OF MAKING AND USING THE SAME” (Duke University, priority 2019, published 2024)
Values after ≈ are worked out from the molar mass of the structure shown. Like-named read-outs stand apart in the source and are kept apart here.

Key:
[1] = tested on: K. pneumoniae (ATCC 10031); assay: MIC assay (broth microdilution), K. pneumoniae; assay type: cell-based; conditions: Klebsiella pneumoniae, ATCC10031
Experimental: The MIC assay protocol was adapted from the broth microdilution methods described by the National Committee for Clinical Laboratory Standards using 96-well plates as described previously. In brief, overnight bacterial cultures were diluted to an OD600 of 0.006 in cation-adjusted Mueller-Hinton medium containing 7% DMSO and incubated at 37° C. for 22 h in the presence of varying concentrations of inhibitors. Following overnight incubation, each well is treated with 10 μL of 3-(4,5-dimethylthiazol-2-yl)-2,5-diphenyltetrazolium bromide (MTT, 5 mg/mL) for 3 h. Finally, the culture is solubilized by addition of 2-propanol, and the results are read by taking the difference of the UV reading at both 570 and 690 nm. MIC values were reported as the lowest compound concentration that inhibited bacterial growth. The baseline for inhibited cell growth was determined to be <4× the average control reading due to the baseline optical density of the initial starting bacterial culture.

[2] = biological target: K. pneumoniae LpxH (KpLpxH) (Klebsiella pneumoniae subsp. pneumoniae (strain ATCC 700721 / MGH 78578), UniProt A6T5R0); assay: LpxE-coupled malachite green LpxH activity assay (KpLpxH inhibition); assay type: biochemical; conditions: for remaining activity at 0.1 µM / inhibition at 0.1 µM / Percentage Activity of KpLpxH (vi/v0): 0.1 μM inhibitor; for remaining activity at 0.1 µM / Percentage Activity of KpLpxH (vi/v0): normalized against KpLpxH activity in 10% DMSO; for remaining activity at 0.1 µM: read-out: Percentage Activity of KpLpxH (vi/v0); for inhibition at 0.1 µM: read-out: Percentage Inhibition of KpLpxH
Experimental: Evaluation of LpxH inhibition by analogs: After completing the synthesis of sulfonyl piperazine compounds with various forms of linkers, the KpLpxH inhibition was biochemically characterized by these analogs at 0.1 μM using the nonradioactive, colorimetric malachite green assay that we had previously reported. […] Such an enhanced potency requires the presence of the hydroxamate group, as its substitution with a carboxylate group in compound 7 reduced the compound activity (vi/v0=30±6%).
The LpxE-coupled LpxH activity assay was conducted as described previously using the GB1-K. pneumoniae LpxH-His10 fusion protein. Briefly, two reaction mixtures were prepared. Mixture 1 contains 20 mM Tris-HCl (pH 8.0), 0.5 mg/mL BSA, 0.02% Triton X-100, 1 mM MnCl2, 1 mM DTT, 10% DMSO, and 200 µM substrate (UDP-DAGn), and mixture 2 is comprised of the same buffer, but instead of substrate, contains both LpxH (20 ng/ml) and 2× inhibitor. These mixtures were then pre-incubated at 37° C. for 10 min. To initiate the reaction, an equal volume of the LpxH mixture (mixture 2) was added to the substrate mixture (mixture 1) at 37° C. The final reaction solution contains 100 μM substrate, 10 ng/ml enzyme, and 1× inhibitor. At the desired reaction time points, an aliquot of 20 μL reaction mixture was removed and added to a well in 96-well half-area plate containing 5 mM EDTA (final concentration) to quench the LpxH reaction. Purified Aquifex aeolicus LpxE was then added to a final concentration of 5 μg/mL. The plate was incubated at 37° C. for 30 min followed by addition of formic acid to a final concentration of 3.75 M to quench the LpxE reaction. The malachite green reagent (Sigma Aldrich, catalog MAK307) was diluted 5-fold into the solutions, and the plate was incubated for 30 min at room temperature before the absorbance at 620 nm was measured. All measurements were done in triplicates, and standard error (S.E.) was calculated.

[3] = Table 4, read-out: MIC - K. pneumoniae (ATCC 10031)
[4] = Table 5, read-out: IC50: Average
[5] = K. pneumoniae (ATCC 10031), in vitro, read-out: MIC

Structure (SMILES) | MIC [1, 3] [µg/mL] | IC50 [2, 4] [nM] | further results
CC(=O)N1CCc2cc(S(=O)(=O)N3CCN(c4cc(F)cc(C(F)(F)F)c4)CC3)ccc21 [JH-LPH-28] | 3 (≈ 6.36 µM) | 139 | –
O=C(CCCCNC(=O)Nc1ccc(S(=O)(=O)N2CCN(c3cc(Cl)cc(C(F)(F)F)c3)CC2)cc1)NO [JH-LPH-41] | 10.7 (≈ 18.5 µM) | 73 | remaining activity at 0.1 µM [2]: 36%; inhibition at 0.1 µM [2]: 64%
CC(=O)n1ccc2cc(S(=O)(=O)N3CCN(c4cc(Cl)cc(C(F)(F)F)c4)CC3)ccc21 [JH-LPH-42] | > 64 | – | –
O=C(CCCCNC(=O)N1CCc2cc(S(=O)(=O)N3CCN(c4cc(Cl)cc(C(F)(F)F)c4)CC3)ccc21)NO [JH-LPH-45] | 18.7 (≈ 30.9 µM) | 17 | MIC [1, 5]: 18.7 µg/mL (≈ 31 µM); IC50 [2]: 18 nM; Ki [2]: 7.3 nM; Percentage Activity of KpLpxH (vi/v0) ([2]; listed as 8 (JH-LPH-45)): 18 ± 1%; remaining activity at 0.1 µM [2]: 18 ± 1%; inhibition at 0.1 µM [2]: 82%
O=C(CCCCCC(=O)N1CCc2cc(S(=O)(=O)N3CCN(c4cc(Cl)cc(C(F)(F)F)c4)CC3)ccc21)NO [JH-LPH-46] | – | – | Percentage Activity of KpLpxH (vi/v0) ([2]; listed as 10 (JH-LPH-46)): 93 ± 7%; remaining activity at 0.1 µM [2]: 93 ± 7%; inhibition at 0.1 µM [2]: 7%
CC(=O)N1CCc2cc(S(=O)(=O)N3CCN(c4cc(C)cc(C(F)(F)F)c4)CC3)ccc21 [JH-LPH-49] | 18.7 (≈ 39.9 µM) | 152 | –
O=C(CCCCCNC(=O)Nc1ccc(S(=O)(=O)N2CCN(c3cc(Cl)cc(C(F)(F)F)c3)CC2)cc1)NO [JH-LPH-50] | 3.33 (≈ 5.62 µM) | 8 | MIC [1, 5]: 3.3 µg/mL (≈ 5.57 µM); Ki [2]: 3.1 nM; Percentage Activity of KpLpxH (vi/v0) ([2]; listed as 13 (JH-LPH-50)): 3 ± 2%; remaining activity at 0.1 µM [2]: 3 ± 2%; inhibition at 0.1 µM [2]: 97%; IC50 ([2]; IC50 curves FIG. 3E/4E, read-out: IC50 of KpLpxH inhibition): 7.7 nM
O=C(O)CCCCCNC(=O)Nc1ccc(S(=O)(=O)N2CCN(c3cc(Cl)cc(C(F)(F)F)c3)CC2)cc1 [JH-LPH-54] | – | – | Percentage Activity of KpLpxH (vi/v0) ([2]; listed as 12 (JH-LPH-54)): 57 ± 3%; remaining activity at 0.1 µM [2]: 57 ± 3%; inhibition at 0.1 µM [2]: 43%
O=C(O)CCCCNC(=O)N1CCc2cc(S(=O)(=O)N3CCN(c4cc(Cl)cc(C(F)(F)F)c4)CC3)ccc21 [JH-LPH-55] | – | – | Percentage Activity of KpLpxH (vi/v0) ([2]; listed as 7 (JH-LPH-55)): 30 ± 6%; remaining activity at 0.1 µM [2]: 30 ± 6%; inhibition at 0.1 µM [2]: 70%
O=C(NCCCCc1cccn(O)c1=S)Nc1ccc(S(=O)(=O)N2CCN(c3cc(Cl)cc(C(F)(F)F)c3)CC2)cc1 [JH-LPH-60] | – | – | Percentage Activity of KpLpxH (vi/v0) ([2]; listed as 15 (JH-LPH-60)): 39 ± 6%; remaining activity at 0.1 µM [2]: 39 ± 6%; inhibition at 0.1 µM [2]: 61%
O=C(NCCn1cc(C(=O)O)nn1)Nc1ccc(S(=O)(=O)N2CCN(c3cc(Cl)cc(C(F)(F)F)c3)CC2)cc1 [JH-LPH-61] | > 64 | – | –
O=C(/C=C/CCCNC(=O)Nc1ccc(S(=O)(=O)N2CCN(c3cc(Cl)cc(C(F)(F)F)c3)CC2)cc1)NO [JH-LPH-64] | 20 (≈ 33.9 µM) | – | Percentage Activity of KpLpxH (vi/v0) ([2]; listed as 18 (JH-LPH-64)): 34 ± 7%; remaining activity at 0.1 µM [2]: 34 ± 7%; inhibition at 0.1 µM [2]: 66%
O=C(CCCCCCC(=O)Nc1ccc(S(=O)(=O)N2CCN(c3cc(Cl)cc(C(F)(F)F)c3)CC2)cc1)NO [JH-LPH-65] | 12 (≈ 20.3 µM) | 13 | –
O=C(CCCCCCC(O)Cn1cncn1)Nc1ccc(S(=O)(=O)N2CCN(c3cc(Cl)cc(C(F)(F)F)c3)CC2)cc1 (stereo not drawn) [JH-LPH-68] | 28 (≈ 43.5 µM) | – | –
O=C(CN1CCOCC1)Nc1ccc(S(=O)(=O)N2CCN(c3cc(Cl)cc(C(F)(F)F)c3)CC2)cc1 [JH-LPH-69] | 4 (≈ 7.31 µM) | 79 | –
O=C(CN1CCOCC1)N1CCc2cc(S(=O)(=O)N3CCN(c4cc(Cl)cc(C(F)(F)F)c4)CC3)ccc21 [JH-LPH-70] | 10.7 (≈ 18.6 µM) | 62 | –
NCC(=O)N1CCc2cc(S(=O)(=O)N3CCN(c4cc(Cl)cc(C(F)(F)F)c4)CC3)ccc21 [JH-LPH-71] | 8 (≈ 15.9 µM) | – | –
NC(=O)N1CCc2cc(S(=O)(=O)N3CCN(c4cc(Cl)cc(C(F)(F)F)c4)CC3)ccc21 [JH-LPH-73] | 0.67 (≈ 1.37 µM) | 37 | –
NC(=O)N1CCc2cc(S(=O)(=O)N3CCN(c4cc(Cl)cc(C(F)(F)F)c4)CC3)c(F)cc21 [JH-LPH-75] | > 64 | – | –
CS(=O)(=O)Nc1ccc(S(=O)(=O)N2CCN(c3cc(Cl)cc(C(F)(F)F)c3)CC2)cc1 [JH-LPH-77] | > 64 | – | –
O=C(COCc1ccc2nonc2c1)N1CCc2cc(S(=O)(=O)N3CCN(c4cc(Cl)cc(C(F)(F)F)c4)CC3)ccc21 [JH-LPH-79] | – | 37 | –
CCOC(=O)c1ccc(N2CCN(S(=O)(=O)c3ccc4c(c3)CCN4C(C)=O)CC2)cc1 [JH-LPH-82] | > 64 | – | –
CCCCN1CCN(S(=O)(=O)c2ccc3c(c2)CCN3C(C)=O)CC1 [JH-LPH-84] | 32 (≈ 87.6 µM) | – | –
CC(=O)N1CCc2cc(S(=O)(=O)N3CCN(c4cc(C(F)(F)F)ccn4)CC3)ccc21 [JH-LPH-86] | 0.125 (≈ 0.275 µM) | – | –
NC(=O)N1CCc2cc(S(=O)(=O)N3CCN(c4cc(C(F)(F)F)ccn4)CC3)ccc21 [JH-LPH-91] | 0.125 (≈ 0.274 µM) | 105 | –
NCCNC(=O)N1CCc2cc(S(=O)(=O)N3CCN(c4cc(C(F)(F)F)cc(Cl)n4)CC3)ccc21 [JH-LPH-95] | 4 (≈ 7.51 µM) | – | –
NCCCNC(=O)N1CCc2cc(S(=O)(=O)N3CCN(c4cc(C(F)(F)F)cc(Cl)n4)CC3)ccc21 [JH-LPH-98] | – | 24 | –
NCCCCNC(=O)N1CCc2cc(S(=O)(=O)N3CCN(c4cc(C(F)(F)F)cc(Cl)n4)CC3)ccc21 [JH-LPH-99] | – | 11 | –

Now from value to molecule, other results behind:

MIC [1, 3] [µg/mL] | IC50 [2, 4] [nM] | Structure (SMILES) | further results
> 64 | – | CS(=O)(=O)N1CCc2cc(S(=O)(=O)N3CCN(c4cc(Cl)cc(C(F)(F)F)c4)CC3)ccc21 [JH-LPH-47] | –
> 64 | 49 | CC(=O)N1CCc2cc(S(=O)(=O)N3CCN(c4cc(Br)cc(C(F)(F)F)c4)CC3)ccc21 [JH-LPH-48] | –
24 (≈ 38.9 µM) | – | O=C(NCCn1cc(C(=O)NO)nn1)Nc1ccc(S(=O)(=O)N2CCN(c3cc(Cl)cc(C(F)(F)F)c3)CC2)cc1 [JH-LPH-62] | Percentage Activity of KpLpxH (vi/v0) ([2]; listed as 20 (JH-LPH-62)): 59 ± 7%; remaining activity at 0.1 µM [2]: 59 ± 7%; inhibition at 0.1 µM [2]: 41%
26.7 (≈ 45.3 µM) | – | O=C(CC/C=C/CCC(=O)Nc1ccc(S(=O)(=O)N2CCN(c3cc(Cl)cc(C(F)(F)F)c3)CC2)cc1)NO [JH-LPH-66] | –
> 64 | – | CN(C)CC(=O)N1CCc2cc(S(=O)(=O)N3CCN(c4cc(Cl)cc(C(F)(F)F)c4)CC3)ccc21 [JH-LPH-72] | –
> 64 | – | O=C(CCCn1cc(C(=O)Nc2ccc(S(=O)(=O)N3CCN(c4cc(Cl)cc(C(F)(F)F)c4)CC3)cc2)nn1)NO [JH-LPH-74] | –
> 64 | – | NC(=O)N1CCc2cc(S(=O)(=O)N3CCN(c4cc(Cl)cc(C(F)(F)F)c4)CC3)c(Cl)cc21 [JH-LPH-76] | –
– | 431 | O=C(NO)c1ccc(-c2ccccc2C(=O)Nc2ccc(S(=O)(=O)N3CCN(c4cc(Cl)cc(C(F)(F)F)c4)CC3)cc2)cc1 [JH-LPH-80] | –
32 (≈ 81.7 µM) | – | CC(=O)N1CCc2cc(S(=O)(=O)N3CCN(C4CCCCC4)CC3)ccc21 [JH-LPH-81] | –
64 (≈ 176 µM) | – | C/C=C/CN1CCN(S(=O)(=O)c2ccc3c(c2)CCN3C(C)=O)CC1 [JH-LPH-83] | –
12 (≈ 26.1 µM) | – | CC(=O)N1CCc2cc(S(=O)(=O)N3CCN(c4nc(C(F)(F)F)cs4)CC3)ccc21 [JH-LPH-85] | –
0.063 (≈ 0.129 µM) | 5 | CC(=O)N1CCc2cc(S(=O)(=O)N3CCN(c4cc(C(F)(F)F)cc(Cl)n4)CC3)ccc21 [JH-LPH-92] | –
> 64 | – | NC(=O)N1CCc2cc(S(=O)(=O)N3CCN(c4cccc(C(F)(F)F)n4)CC3)ccc21 [JH-LPH-94] | –
